Key:
[1] = biological target: T1, human enzyme NAMPT (full length) (Homo sapiens, UniProt P43490); experiment: NMN fluorescence biochemical assay (stimulation of NMN synthesis by NAMPT); conditions: for EC50: NMN synthesis by purified human NAMPT (100 nM), concentration giving half-maximal activation, read-out: Enzymatic EC50; for Enzymatic Emax: fold change of maximal activation compared to DMSO
T1 construct: human enzyme NAMPT (full length)
Procedure, shortened: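 Full-length human NAMPT (100 nM) was preincubated 15 min at 37 °C with compound in 50 mM Tris-HCl pH 7.5, 10 mM MgCl2, 2 mM DTT, then reacted 1 h at 37 °C with 50 μM NAM, 100 μM PRPP, 4 mM ATP (stated solution concentrations). NMN was derivatised with acetophenone/KOH then formic acid and read at Ex/Em 382/445 nm; EC50 and Emax (fold over DMSO) reported.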

[2] = tested on: endogenous NAMPT in U2OS cells; experiment: Cellular NAD+ modulation assay (NAD/NADH-Glo, U2OS cells); type: cell-based; conditions: Homo sapiens, 24 hours incubation with compound; for maximal fold induction: read-out: Cellular Emax
Experimental: Certain compounds described herein were also assayed for their ability to stimulate the endogenous NAMPT in a native cellular environment in a cellular NAD^+ modulation assay. U2OS cells were grown in McCoy's 5A medium with 10% fetal bovine serum, in a humidified incubator with an atmosphere of 95% air and 5% CO2 at 37° C. The assays were initiated by plating 30 μL of U2OS cells in a culture medium with 10% fetal bovine serum, at a density of 3000 cells per well in a Corning® 384-well White/Clear Bottom Polystyrene Microplate. The plates were incubated in 37T incubators for a period of 16 hours. Test compounds with a series of concentrations in DMSO were added to the plates in a volume of 150 nL using Echo Liquid handlers. The plates are then incubated for 24 hours. The medium was removed from the wells, then 10 μL PBS was added to each well. To each well of cells in 10 μL of PBS, 10 μL of base solution with 1% DTAB was added. The plate was briefly mixed on a plate shaker to ensure homogeneity and cell lysis (5 mins). 10p L of 0.4N HCl was added per well. The plate was coved, and all samples were incubated for 15 minutes at 60° C. Then the plate was equilibrated for 10 minutes at room temperature. 10 μL of 0.5M Trizma® base was added to each well of acid-treated cells to neutralize the acid. Finally, 30 μL of NAD/NADH-Glo™ Detection Reagent was added. The plate was gently shaken to mix the samples. The plate was incubated for 40 minutes at room temperature. Luminescence was recorded using a luminometer. The potency measurements for the test compounds were quantified and represented as EC50 (concentration of a compound that gives half-maximal activation) and Emax (fold change of a compound's maximal activation compared to DMSO).

T1 sequence (P43490 whole entry): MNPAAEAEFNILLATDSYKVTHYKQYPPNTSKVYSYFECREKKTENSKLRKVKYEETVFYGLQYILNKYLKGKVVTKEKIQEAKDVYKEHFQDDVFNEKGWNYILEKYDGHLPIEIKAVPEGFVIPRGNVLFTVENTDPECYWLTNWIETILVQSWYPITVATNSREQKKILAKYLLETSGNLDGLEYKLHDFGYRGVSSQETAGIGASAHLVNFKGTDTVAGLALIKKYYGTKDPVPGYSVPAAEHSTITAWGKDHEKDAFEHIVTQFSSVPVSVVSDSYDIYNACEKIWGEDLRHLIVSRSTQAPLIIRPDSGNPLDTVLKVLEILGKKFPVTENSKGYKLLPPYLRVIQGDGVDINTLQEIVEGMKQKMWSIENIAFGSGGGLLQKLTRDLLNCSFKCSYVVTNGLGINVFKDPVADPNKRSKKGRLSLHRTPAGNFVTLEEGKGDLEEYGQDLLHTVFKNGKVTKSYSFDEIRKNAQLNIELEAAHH

| Structure (SMILES) | EC50 [1] [µM] | Enzymatic Emax [1] | EC50 [2] [µM] | maximal fold induction [2] |
| --- | --- | --- | --- | --- |
| NC(=O)c1ccc2c(c1)C(=O)N(Cc1ccc(O)cc1)C2=O [Compound 38, 2-(4-hydroxybenzyl)-1,3-dioxoisoindoline-5-carboxamide] | ≥ 5 | A (A>3) | 5 to 50 | ≤ 1.2 |
| O=C1c2cccnc2CN1Cc1ccc(O)cc1 [Compound 39, 6-(4-hydroxybenzyl)-6,7-dihydro-5H-pyrrolo[3,4-b]pyridin-5-one] | ≥ 5 | B (3≥B>2) | 5 to 50 | 1.2 to 1.5 |
| O=C1c2ncccc2CN1Cc1ccc(O)cc1 [Compound 40, 6-(4-hydroxybenzyl)-5,6-dihydro-7H-pyrrolo[3,4-b]pyridin-7-one] | ≥ 5 | B (3≥B>2) | 5 to 50 | 1.2 to 1.5 |
| CCc1ccc2c(c1)C(=O)N(Cc1ccc(O)cc1)C2=O [Compound 41, 5-ethyl-2-(4-hydroxybenzyl)isoindoline-1,3-dione] | 0.5 to 5 | A (A>3) | 0.5 to 5 | 1.2 to 1.5 |
| O=C1c2cnccc2CN1Cc1ccc(O)cc1 [Compound 42, 2-(4-hydroxybenzyl)-1,2-dihydro-3H-pyrrolo[3,4-c]pyridin-3-one] | ≥ 5 | A (A>3) | 5 to 50 | > 1.5 |
| O=C1c2ccncc2CN1Cc1ccc(O)cc1 [Compound 43, 2-(4-hydroxybenzyl)-2,3-dihydro-1H-pyrrolo[3,4-c]pyridin-1-one] | ≥ 5 | A (A>3) | 5 to 50 | 1.2 to 1.5 |
| CC1c2ccccc2C(=O)N1Cc1ccc2[nH]nnc2c1 (stereo not shown) [Compound 44, 2-((1H-benzo[d][1,2,3]triazol-5-yl)methyl)-3-methylisoindolin-1-one] | ≥ 5 | B (3≥B>2) | 5 to 50 | 1.2 to 1.5 |
| CC(c1ccc(O)cc1)N1Cc2ccccc2C1=O (stereo not shown) [Compound 45, 2-(1-(4-hydroxyphenyl)ethyl) isoindolin-1-one] | ≥ 5 | B (3≥B>2) | 0.5 to 5 | 1.2 to 1.5 |
| Cn1c2ccccc2c(=O)n1Cc1ccc2[nH]c(=O)oc2c1 [Compound 46, 6-((1-methyl-3-oxo-1,3-dihydro-2H-indazol-2-yl)methyl)benzo[d]oxazol-2(3H)-one] | ≥ 5 | B (3≥B>2) | 5 to 50 | > 1.5 |
| O=C1c2ccc(N3CCOCC3)cc2CN1Cc1ccc2[nH]c(=O)oc2c1 [Compound 47, 6-((5-morpholino-1-oxoisoindolin-2-yl)methyl)benzo[d]oxazol-2(3H)-one] | ≥ 5 | B (3≥B>2) | 5 to 50 | > 1.5 |
| Cc1ccc2c(c1)CN(Cc1ccc3[nH]c(=O)oc3c1)C2=O [Compound 48, 6-((5-methyl-1-oxoisoindolin-2-yl)methyl)benzo[d]oxazol-2(3H)-one] | ≥ 5 | B (3≥B>2) | 0.5 to 5 | > 1.5 |
| COc1ccc2c(c1)CN(Cc1ccc3[nH]c(=O)oc3c1)C2=O [Compound 49, 6-((5-methoxy-1-oxoisoindolin-2-yl)methyl)benzo[d]oxazol-2(3H)-one] | ≥ 5 | B (3≥B>2) | 5 to 50 | > 1.5 |
| CC1(C)c2ccccc2C(=O)N1Cc1ccc2[nH]c(=O)oc2c1 [Compound 52, 6-((1,1-dimethyl-3-oxoisoindolin-2-yl)methyl) benzo[d]oxazol-2(3H)-one] | ≥ 5 | B (3≥B>2) | 0.5 to 5 | > 1.5 |
| CCC1c2ccccc2C(=O)N1Cc1ccc2[nH]c(=O)oc2c1 (stereo not shown) [Compound 53, 6-((1-ethyl-3-oxoisoindolin-2-yl)methyl) benzo[d]oxazol-2(3H)-one] | ≥ 5 | B (3≥B>2) | 5 to 50 | 1.2 to 1.5 |
| CC1c2ccccc2C(=O)N1Cc1ccc2[nH]c(=O)oc2c1 (stereo not shown) [Compound 54, 6-((1-methyl-3-oxoisoindolin-2-yl)methyl)benzo[d]oxazol-2(3H)-one] | ≥ 5 | A (A>3) | 0.5 to 5 | > 1.5 |
| C[C@@H]1c2ccccc2C(=O)N1Cc1ccc2[nH]c(=O)oc2c1 [Compound 55, (R)-6-((1-methyl-3-oxoisoindolin-2-yl)methyl)benzo[d]oxazol-2(3H)-one] | ≥ 5 | B (3≥B>2) | 5 to 50 | 1.2 to 1.5 |
| C[C@H]1c2ccccc2C(=O)N1Cc1ccc2[nH]c(=O)oc2c1 [Compound 56, (S)-6-((1-methyl-3-oxoisoindolin-2-yl)methyl)benzo[d]oxazol-2(3H)-one] | ≥ 5 | A (A>3) | 0.5 to 5 | > 1.5 |
| O=C1c2ccccc2C(c2ccccc2)N1Cc1ccc2[nH]c(=O)oc2c1 (stereo not shown) [Compound 67, 6-((1-oxo-3-phenylisoindolin-2-yl)methyl)benzo[d]oxazol-2(3H)-one] | ≥ 5 | B (3≥B>2) | 5 to 50 | 1.2 to 1.5 |
| O=C1c2ccccc2C(C2CC2)N1Cc1ccc2[nH]c(=O)oc2c1 (stereo not shown) [Compound 72, 6-((1-cyclopropyl-3-oxoisoindolin-2-yl)methyl)benzo[d]oxazol-2(3H)-one] | ≥ 5 | A (A>3) | 0.5 to 5 | > 1.5 |
| CC1c2cc(NC3CC4(CNC4)C3)ccc2C(=O)N1Cc1ccc2[nH]c(=O)oc2c1 (stereo not shown) [Compound 79, 6-((5-((2-azaspiro[3.3]heptan-6-yl)amino)-3-methyl-1-oxoisoindolin-2-yl)methyl)benzo[d]oxazol-2(3H)-one] | ≥ 5 | A (A>3) | < 0.5 | ≤ 1.2 |
| CC1c2cc(NC3CCCC3)ccc2C(=O)N1Cc1ccc2[nH]c(=O)oc2c1 (stereo not shown) [Compound 81, 6-((5-(cyclopentylamino)-3-methyl-1-oxoisoindolin-2-yl)methyl)benzo[d]oxazol-2(3H)-one] | ≥ 5 | A (A>3) | 0.5 to 5 | 1.2 to 1.5 |
| CC(=O)Nc1ccc(CN2C(=O)c3ccccc3C2C)cc1 (stereo not shown) [Compound 82, N-(4-((1-methyl-3-oxoisoindolin-2-yl)methyl)phenyl)acetamide] | ≥ 5 | B (3≥B>2) | 0.5 to 5 | 1.2 to 1.5 |
| CC1c2ccccc2C(=O)N1Cc1cc(F)c2[nH]c(=O)oc2c1 (stereo not shown) [Compound 89, 4-fluoro-6-((1-methyl-3-oxoisoindolin-2-yl)methyl)benzo[d]oxazol-2(3H)-one] | ≥ 5 | B (3≥B>2) | 5 to 50 | 1.2 to 1.5 |
| CC1c2cc(NC3CCOCC3)ccc2C(=O)N1Cc1ccc2[nH]c(=O)oc2c1 (stereo not shown) [Compound 95, 6-((3-methyl-1-oxo-5-((tetrahydro-2H-pyran-4-yl)amino)isoindolin-2-yl)methyl)benzo[d]oxazol-2(3H)-one] | 0.5 to 5 | B (3≥B>2) | 5 to 50 | > 1.5 |
| CC1c2cc(CN3CCCC3)ccc2C(=O)N1Cc1ccc2[nH]c(=O)oc2c1 (stereo not shown) [Compound 96, 6-((3-methyl-1-oxo-5-(pyrrolidin-1-ylmethyl)isoindolin-2-yl)methyl)benzo[d]oxazol-2(3H)-one] | ≥ 5 | A (A>3) | 0.5 to 5 | > 1.5 |
| O=C1c2ccc(N3CCOCC3)cc2C(Cc2ccccc2)N1Cc1ccc2[nH]c(=O)oc2c1 (stereo not shown) [Compound 97, 6-((3-benzyl-5-morpholino-1-oxoisoindolin-2-yl)methyl)benzo[d]oxazol-2(3H)-one] | 0.5 to 5 | A (A>3) | 0.5 to 5 | > 1.5 |
| CC(=O)Nc1ccc(CN2Cc3ccccc3C2=O)cc1 [Compound 104, N-(4-((1-oxoisoindolin-2-yl)methyl)phenyl)acetamide] | ≥ 5 | B (3≥B>2) | 5 to 50 | > 1.5 |
| CNC(=O)Nc1ccc(CN2Cc3ccccc3C2=O)cc1 [Compound 105, 1-methyl-3-(4-((1-oxoisoindolin-2-yl)methyl)phenyl)urea] | ≥ 5 | B (3≥B>2) | 0.5 to 5 | > 1.5 |
